# Results reported in patent US7279332B2, “Method of isolating ependymal neural stem cells” (NeuroNova AB, priority 1998, dated 2007).
# Tested on: nigral dopamine neurons (substantia nigra pars compact)
# Test: Quantitative in vivo neurogenesis in substantia nigra pars compact after DiI labeling of ependymal cells
# Settings: mice
# Method: Adult rats and mice were given DiI through intraventricular injections as described in the example above. At various time intervals after the injection (hours-months), the animals were transcardially perfused with 15 ml 0.9% saline, followed by 50 ml of +4° C. 4% (w/v) paraformaldehyde and 0.4% (v/v) picric acid in 0.1 M phosphate buffered saline, pH 6.9, during 5 min. After brain removal, the tissue was fixed for an additional 90 minutes in the same fixative and cryoprotected in buffered sucrose (10% for 24 h, 30% for 2 days) at +4° C. The entire midbrain was cut with a cryostat using a systematic, uniform random sampling design, where 40 μm thick frontal sections were taken to six parallel rostrocaudal series. One series of sections was kept in 0.1 M PBS and the fluorescent signal was immediately converted to a permanent diaminobenzidine (DAB) signal using a modified previously described protocol (Singleton et al., J. Neurosci. Meth. 64:47). […] The photoconversion process was carefully evaluated and when all the fluorescent signal in substantia nigra was visualized with the brown DAB product, the sections were immunohistochemically labeled with a marker (Vector SG, Vector) for dopamine neurons (tyrosine hydroxylase) utilizing the avidin-biotin-immunoperoxidase system (Vector) (Janson et al., Neuroscience 57:931). The five parallel series of sections were instead stored in 30% sucrose in 0.1 M PBS at −20° C. until they were processed for immunohistochemistry and analyzed in a confocal laser scanning microscope utilizing several markers for glia and neurons (with appropriate controls) to determine the neuronal phenotype of the DiI labeled cells in substantia nigra pars compact (FIG. 8).
# Quantitative estimates of the total number of TH immunoreactive cell bodies counterstained with cresyl violet (TH/CV+ neurons) as well as TH immunoreactive cell bodies also containing DiI label were made in the bilateral SNc. Neuronal counts were determined using coded sections and a stereological technique, the optical fractionator (Janson et al., Neuroscience 57:931). […]
structure (smiles),measurement,setting,value
"CN1CC=C(c2ccccc2)CC1 [MPTP, 1-methyl-4-phenyl-1,2,3,6-tetrahydropyridine]",number of TH+/DiI+ nigral neurons,MPTP 40 mg/kg sc. vs vehicle,higher numbers of TH+/DiI+ nigral neurons
same,migratory streams of DiI+ cells in the midbrain,"MPTP 40 mg/kg sc. vs vehicle, qualitative appearance",appeared more pronounced
same,"increase in number of new neurons generated each week in substantia nigra, compared to animals treated with vehicle alone","MPTP 40 mg/kg sc., regression curve (r^2=0.744) of counts at a few hours to 2 months",24%
